Measured values: publication PMC10630888, “Nuclear ERK1/2 signaling potentiation enhances neuroprotection and cognition via Importinα1/KPNA2” (EMBO Molecular Medicine, 2023)
Several values for one entry are separate records, joined by “and”; a condition that tells them apart may be missing. Equal entries are not always repeated.

Key:
[1] = system: S6 (Ser235/236) phosphorylation; assay: Striatal pS6 (Ser235/236) immunofluorescence 1 h after single injection; format: in vivo, mouse; details: single injection 20 mg/kg i.p., individual mice
Procedure: Immunofluorescence was performed as described in Papale et al ([2016]). Briefly, 1 h after blocking in 5% normal goat serum, slices were incubated overnight at 4°C with the following primary antibodies: anti‐phospho (Ser10)‐acetylated (Lys14) histone H3 (1:1,000, Millipore), anti‐phospho‐S6 ribosomal protein (Ser235/236) (1:200, Cell Signaling Technology) anti‐phospho‐S6 ribosomal protein (Ser240/244) (1:200, Cell Signaling), cleaved caspase‐3 (1:200, Cell Signaling Technology), anti‐mutant Huntingtin (1:100, Developmental Studies Hybridoma Bank, University of Iowa, #MW8), and NeuN (1:1,000, Millipore). Corresponding secondary antibodies (Alexa Fluor 546 conjugated anti‐mouse (1:200, Thermo Fisher Scientific), Alexa Fluor 488 conjugated anti‐rabbit (1:500, Thermo Fisher Scientific) and Pacific Blue goat anti‐mouse (1:200, Thermo Fisher Scientific) were incubated at room temperature for 1 h. Sections stained for mutant Huntingtin were incubated with DAPI for 20 min. Sections were subsequently mounted with fluorescent mounting medium (DAKO). Single and double‐labeled images ([…]) were obtained at 40× magnification from the striatum using a laser scanning confocal microscope (Leica SP2) equipped with the corresponding lasers and appropriate filter sets to avoid the crosstalk between the fluorochromes.
In ex‐vivo and in‐vivo immunofluorescence experiments, the number of p‐S6 or p‐AcH3 immunoreactive neurons among NeuN‐positive neurons was counted in 2–3 consecutive striatal sections per mouse in four fields per section. Caspase 3‐positive cells were quantified among NeuN‐positive neurons in each slide and expressed as percentage (ratio between caspase‐3‐positive cells and total NeuN‐positive neurons) for each field acquired through the slide. The number of cells showing mutant Huntingtin inclusions were expressed as a percentage of mutant Huntingtin‐positive cells among DAPI‐positive cells.

[2] = system: p-ERK1/2 in CTIP2+ neurons; assay: p-ERK1/2 in CTIP2+ iPSC-derived HD MSNs; format: cell-based, human; details: for p-ERK1/2 in CTIP2+ neurons (Fig 5 panel f): individual replicates
Procedure: The human induced pluripotent stem cell line CS09iHD109‐n1 (herein referred to as Q109N1) was originally generated from a human fibroblast line ND39258 (RRID:CVCL_ZC78) with an expanded HTT allele initially containing 109 pure CAG trinucleotides, and the isogenic control lines used were derived by CRISPR gene‐edit to reduce the CAG repeat length to 20 repeats (Mattis et al, [2015]). IPSCS were cultured on hESC‐qualified Matrigel (Corning) in E8‐Flex medium (Thermo Fisher) and passaged with RelesR (Stem Cell Technologies) according to the manufacturer's instructions. For neural differentiation iPSCS were grown to 70% confluency and then treated with 10 μM Y‐27632 (Tocris) for 1 h before harvesting by dissociation to a single cell suspension using accutase (Sigma). IPSCs were replated onto fresh Matrigel‐coated plates at a split ratio of 1:2, in E8‐Flex medium containing 10 μM Y‐27632. After overnight culture, IPSCs at 80–90% confluency were washed with PBS pH 7.4 (Gibco) and then switched to neural induction medium (Advanced DMEM/F12 (1:1) supplemented with 2 mM GlutamaxTM (Gibco), 2% Neurobrew without vitamin A (Miltenyi), 10 μM SB431542, 1 μM LDN 193189 (both Stem Cell Technologies), and 1.5 μM IWR1 (Tocris)). Medium was changed daily until day 8, when cells were passaged 1:2 by cell dissociation with Accutase for 5 min at 37°C and replated on Matrigel® coated plates in LIA medium containing (Advanced DMEM/F12 (1:1) supplemented with 2 mM GlutamaxTM, 2% Neurobrew without vitamin A, 0.2 μM LDN 193189, 1.5 μM IWR1, and 20 ng/ml Activin A (Peprotech)). At day 16, cells were plated for neuronal differentiation according to (Telezhkin et al, [2016]). […]
Images were acquired using a confocal microscope (Zeiss LSM710) under a 20× objective and analyzed with ImageJ software.

## GRKKRRQRRRPPQGGGGGEPRRTEGVGPGVPGEVEMVKGQPFDV [RB5, six D-amino acids, acetylated N-terminus]
[1]; ERK1+/+ (WT) mice
  pS6 (Ser235/236) positive neurons in striatum: comparable in both genotypes
[1]; ERK1-/- mice
  pS6 (Ser235/236) positive neurons in striatum: comparable in both genotypes
[1]; 1 h
  pS6 (Ser235/236) positive neurons in striatum: slightly reduced
[2]; CTR iPSC-derived MSNs
  p-ERK1/2 in CTIP2+ neurons (Fig 5 panel f): 40.5874 and 43.5065 and 59.0476 and 55.7538 and 63.8384 and 58.6194
[2]; HD and isogenic control iPSC-derived MSNs, 50 μM, 30 min
  p-ERK1/2 in CTIP2+ neurons: induced ERK activation
[2]; HD iPSC-derived MSNs
  p-ERK1/2 in CTIP2+ neurons (Fig 5 panel f): 50.2062 and 59.3301 and 53.5036 and 55.8187 and 47.3002 and 65.1771
